Laboratory results from patent US20150141248A1, “ANTIFUNGAL COMPOSITIONS” (DSM IP ASSETS B.V., priority 2011, published 2015).

Columns and labels:
Fusarium proliferatum [1] = assay: Treatment of wounded bananas inoculated with Fusarium proliferatum (mould growth); type: in vivo; details: bananas 20° C.
Experimental: Four organic, unripe (green) bananas were used per treatment. The peel of each banana was wounded thrice using a cork borer according to the method described by de Lapeyre de Bellaire and Dubois (1987). Subsequently, each wound was inoculated with 15 μl of a Fusarium proliferatum suspension containing 1×10^5 of spores/ml. […] In addition, the antifungal compositions comprised 1.00% (w/w) methylhydroxyethylcellulose (MHEC), 0.40% (w/w) xanthan gum, 0.20% (w/w) anti-foaming agent, 0.30% (w/w) citric acid, 0.39% (w/w) lactic acid and 0.11% (w/w) potassium sorbate. The pH of the composition was 4.0. […] The treated, unripe bananas were incubated in a closed box in the dark at 20° C. and a relative air humidity of 95%, which was obtained in the presence of a saturated Na2HPO4 aqueous solution. During the first 20 days of incubation, a ripe (yellow) banana was included in the closed box to elevate the ethylene gas level and thus induce ripening of the treated, unripe bananas. […]
The expected antifungal activity (E in %) of the combined antifungal composition comprising both active ingredients was calculated according to the Colby equation (Colby, 1967): […]
wherein X and Y are the observed antifungal activities (in %) of the individual active ingredients X and Y, respectively. If the observed antifungal activity (O in %) of the combination exceeds the expected antifungal activity (E in %) of the combination and the synergy factor O/E is thus >1.0, the combined application of the active ingredients leads to a synergistic antifungal effect.

Fusarium proliferatum [2] = assay: In vitro antifungal activity, 96-well microtiter plates; type: cell-based; details: in vitro 25° C.; 10 days; natamycin 2.5 ppm, prothioconazole 0.5 ppm or both
Experimental: Subsequently, 100 μl of a Botrytis cinerea suspension prepared in PCB medium was used to inoculated each well with 2.5×10^3 spores/ml.
, the in vitro antifungal activity (%) of the individual active ingredients was assessed by calculating the reduction in mould growth observed in the presence of the active ingredient in comparison to the mould growth observed in the absence of the active ingredient. The expected antifungal activity (E in %) of the active ingredient combination was calculated according to the Colby equation (Colby, 1967): […]
The experiment was conducted as described in Example 13, except for the fact that the following compositions were tested:
Furthermore, Fusarium proliferatum was used for inoculation. The antifungal activity (in %) of the individual and combined active ingredients was determined according to the method described in Example 13.

Botrytis cinerea [3] = assay: as above; type: cell-based; details: in vitro 25° C., natamycin 1.25 ppm
Experimental: The following compositions were tested: […] Subsequently, 100 μl of a Botrytis cinerea suspension prepared in PCB medium was used to inoculated each well with 2.5×10^3 spores/ml. […] The expected antifungal activity (E in %) of the active ingredient combination was calculated according to the Colby equation (Colby, 1967): […] wherein X and Y are the observed antifungal activities (in %) of the individual active ingredients X and Y, respectively.

Penicillium italicum = assay: Treatment of wounded mandarins inoculated with Penicillium italicum (mould growth); type: in vivo
Experimental: Ten fresh, organic mandarins were used per treatment. The peel of each mandarin was wounded once using a cork borer according to the method described by de Lapeyre de Bellaire and Dubois (1987). Subsequently, each wound was inoculated with 10 μl of a Penicillium italicum suspension containing 1×10^4 of spores/ml. […] The pH of the composition was 4.0. […]

Botrytis cinerea [4] = assay: Treatment of wounded strawberries inoculated with Botrytis cinerea (mould growth); type: in vivo; details: 250 ppm natamycin; for Number of moulded wounds/total number of 12 wounds (title: Number of moulded strawberries): strawberries 20° C.; for Observed antifungal activity O: strawberries
Experimental: Twelve fresh, organic strawberries were used per treatment. Each strawberry was wounded with a 0.5 mm long cut and each wound was inoculated with 10 μl of a Botrytis cinerea suspension containing 1×10^5 of spores/ml. […] The antifungal compositions also comprised 1.00% (w/w) methylhydroxyethylcellulose (MHEC), 0.40% (w/w) xanthan gum, 0.20% (w/w) anti-foaming agent, 0.30% (w/w) citric acid, 0.39% (w/w) lactic acid and 0.11% (w/w) potassium sorbate. The pH of the composition was 4.0. A composition without natamycin or prothioconazole was used as control. The treated strawberries were incubated in a closed box in the dark at 20° C. for 3 days.
After 2 and 3 days of incubation, the mould growth on the strawberries was assessed in a twofold manner: (i) the number of moulded strawberries per total of 12 strawberries was counted; and (ii) the antifungal activity (in %) of the individual and combined active ingredients was determined by calculating the reduction in mould growth observed on the strawberries treated with the antifungal composition in comparison to the mould growth on the strawberries treated with the control composition according to the Colby method described in Example 4 (Colby, 1967).

## OC(Cc1ccccc1Cl)(Cn1nc[nH]c1=S)C1(Cl)CC1 (stereo not shown) [Prothioconazole, prothioconazole]
Fusarium proliferatum [1]; 250 ppm natamycin, 100 ppm prothioconazole or both, Day 27
  Number of moulded wounds/total number of 12 wounds: 11/12
Fusarium proliferatum [1]; 250 ppm natamycin, 100 ppm prothioconazole or both, Day 27, listed as prothioconazole
  Number of moulded wounds/total number of 12 wounds: 11
Fusarium proliferatum [1]; 250 ppm natamycin, 100 ppm prothioconazole or both, Day 28 and 29
  Number of moulded wounds/total number of 12 wounds: 12/12
Fusarium proliferatum [1]; 250 ppm natamycin, 100 ppm prothioconazole or both, Day 28 and 29, listed as prothioconazole
  Number of moulded wounds/total number of 12 wounds: 12
Fusarium proliferatum [1]; 500 ppm natamycin, 250 ppm prothioconazole or both, Day 27, 28 and 29
  Number of moulded wounds/total number of 12 wounds: 10/12
Fusarium proliferatum [1]; 500 ppm natamycin, 250 ppm prothioconazole or both, Day 27, 28 and 29, listed as prothioconazole
  Number of moulded wounds/total number of 12 wounds: 10
Fusarium proliferatum [2]
  Observed antifungal activity O: 50%
Botrytis cinerea [3]; 5 days, propiconazole 0.50 ppm, prothioconazole 0.13 ppm, or natamycin 1.25 ppm with either
  Observed antifungal activity O: 0%
Botrytis cinerea [3]; 10 days, prothioconazole 0.13 ppm or both
  Observed antifungal activity O: 50%
Penicillium italicum; 250 ppm natamycin, 150 ppm prothioconazole or both, 13 days
  Observed antifungal activity O: 86%
Penicillium italicum; 250 ppm natamycin, 150 ppm prothioconazole or both, 16 days
  Observed antifungal activity O: 82%
Penicillium italicum; 250 ppm natamycin, 150 ppm prothioconazole or both, 21 days
  Observed antifungal activity O: 71%
Penicillium italicum; 250 ppm natamycin, 150 ppm prothioconazole or both, 26 days
  Observed antifungal activity O: 63%
Penicillium italicum; 250 ppm natamycin, 150 ppm prothioconazole or both, 29 days
  Observed antifungal activity O: 40%
Penicillium italicum; 250 ppm natamycin, 150 ppm prothioconazole or both, 34 days
  Observed antifungal activity O: 27%
Penicillium italicum; 500 ppm natamycin, 600 ppm prothioconazole or both, 25 days
  Observed antifungal activity O: 91%
Penicillium italicum; 500 ppm natamycin, 600 ppm prothioconazole or both, 28 days
  Observed antifungal activity O: 83%
Penicillium italicum; 500 ppm natamycin, 600 ppm prothioconazole or both, 31 days
  Observed antifungal activity O: 71%
Penicillium italicum; 500 ppm natamycin, 600 ppm prothioconazole or both, 34 days
  Observed antifungal activity O: 63%
Botrytis cinerea [4]; 500 ppm prothioconazole or both, Day 2
  Number of moulded wounds/total number of 12 wounds (title: Number of moulded strawberries): 12/12
Botrytis cinerea [4]; 500 ppm prothioconazole or both, Day 2, listed as prothioconazole
  Number of moulded wounds/total number of 12 wounds (title: Number of moulded strawberries): 12
Botrytis cinerea [4]; 500 ppm prothioconazole or both, Day 3
  Number of moulded wounds/total number of 12 wounds (title: Number of moulded strawberries): 12/12
Botrytis cinerea [4]; 500 ppm prothioconazole or both, Day 3, listed as prothioconazole
  Number of moulded wounds/total number of 12 wounds (title: Number of moulded strawberries): 12
Botrytis cinerea [4]; 500 ppm prothioconazole (row prints 50 ppm) or both, 3 days
  Observed antifungal activity O: 21%
Botrytis cinerea [4]; 500 ppm prothioconazole or both, 2 days
  Observed antifungal activity O: 14%
